As a reminder, the IC50 is the concentration that inhibits the measured activity by half.

The target of the assay is T1, human PPARγ (Homo sapiens, UniProt P37231).
T1 construct: 1.6 kb of fragment of the prepared plasmid pGEMT-hPPARg2 including human PPARγ gene; expressed in transfected cells; host or cells: CV-1 cells, transient transfection with pCI-hPPARg2, pCI-hRXRa and the reporter pGL3-PPRE3-TK
T1 sequence (P37231 1-505): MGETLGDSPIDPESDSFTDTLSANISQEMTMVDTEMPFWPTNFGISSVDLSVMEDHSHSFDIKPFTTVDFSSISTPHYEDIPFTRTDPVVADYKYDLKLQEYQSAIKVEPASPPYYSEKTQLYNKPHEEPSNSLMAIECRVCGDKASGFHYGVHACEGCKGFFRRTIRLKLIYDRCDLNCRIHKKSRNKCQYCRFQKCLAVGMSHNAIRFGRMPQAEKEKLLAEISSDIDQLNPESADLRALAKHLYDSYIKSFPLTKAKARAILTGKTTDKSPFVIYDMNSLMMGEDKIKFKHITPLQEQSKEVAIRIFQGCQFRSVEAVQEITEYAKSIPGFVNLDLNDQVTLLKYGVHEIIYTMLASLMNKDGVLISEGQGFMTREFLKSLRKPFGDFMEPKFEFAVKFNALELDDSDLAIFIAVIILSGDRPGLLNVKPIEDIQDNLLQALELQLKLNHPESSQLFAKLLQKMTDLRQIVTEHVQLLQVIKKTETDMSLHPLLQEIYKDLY
T1 sequence (P19793 1-462 partner): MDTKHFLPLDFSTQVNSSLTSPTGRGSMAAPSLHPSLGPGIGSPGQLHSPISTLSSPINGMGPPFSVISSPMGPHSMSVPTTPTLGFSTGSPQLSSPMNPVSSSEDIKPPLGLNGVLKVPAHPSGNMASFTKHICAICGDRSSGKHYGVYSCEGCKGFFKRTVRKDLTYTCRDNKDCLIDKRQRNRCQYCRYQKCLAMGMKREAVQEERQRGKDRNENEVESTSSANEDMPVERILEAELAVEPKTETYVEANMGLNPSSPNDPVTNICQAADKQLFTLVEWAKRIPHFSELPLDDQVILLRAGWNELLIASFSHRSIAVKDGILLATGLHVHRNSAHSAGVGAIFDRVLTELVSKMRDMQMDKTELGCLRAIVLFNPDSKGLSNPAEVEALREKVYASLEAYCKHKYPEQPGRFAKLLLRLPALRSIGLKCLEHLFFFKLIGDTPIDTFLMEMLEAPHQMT
The assay can be described thus: Human PPARγ antagonist assay (luciferase reporter in transfected CV-1 cells). The class given is cell-based. The conditions noted are these: CV-1 cells expressing human PPARγ and RXRα with reporter plasmid; pioglitazone 1 μM as stimulant; 24 hours; read-out: Human PPARγ antagonist activities, Inhibition IC50. The method, then:
CV-1 cells (96 well plate), where human PPARγ and RXRα has expressed in the transient transfection of reporter plasmid (see reference 5a) were washed once with PBS (100 μL/well), and then supplemented with 100 μL/well […], as well as pioglitazone (not limited to pioglitazone shown as an example, but may be any PPARγ agonist) at a final concentration of 1 μM as a stimulant were added, and incubated in a 5% CO2 incubator at 37° C. for 24 hours. After removing the medium, the CV-1 cells were washed once with PBS (100 μL/well), and supplemented with 60 μL/well of 1× Passive Lysis Buffer (manufactured by Promega Corporation). The CV-1 cells were incubated at room temperature for 30 minutes, stirred, and then by using Dual-Luciferase Reporter Assay System (manufactured by Promega Corporation), luciferase activities of firefly and renilla were measured using 1420 ARVO Multilabel Counter (manufactured by Wallac Oy). Also, the same experiments as that described above were respectively carried out for the cases where only the above-mentioned stimulants (100 nM, 1 μM, 10 μM) were used, where only the above-mentioned test compounds were used, or where neither was used (nonsupplemented), and luciferase activities of firefly and renilla were measured. Values corrected by dividing the firefly luciferase activities by the renilla luciferase activities were calculated as specific activities and used for evaluations.
Human PPARγ2 antagonist activities of the test compounds were evaluated by using a percentage (inhibition) where the specific activity in case only […] was added is regarded as 0% and the specific activity in case the test compound and the stimulant were not added is regarded as 100%. Moreover, the concentration of the test compound indicating the inhibition rate of 50% was calculated as the IC50 value. Also, human PPARγ2 agonist activities of the test compounds were evaluated by using a percentage (activity) where the specific activity when nonsupplemented is regarded as 0% and the specific activity in case only 10 μM stimulant was added is regarded as 100%, from the specific activity in case only the test compound is used.
CV-1 cells were cultured in DMEM medium (manufactured by Invitrogen Corporation) including 10% fetal bovine serum (manufactured by Dainippon Pharmaceutical Co., Ltd.) in 225T-Flask (manufactured by Corning Costar). The cells were detached by 0.5 g/L trypsin-0.2 g/L EDTA (ethylene diamine tetra-acetic acid) (manufactured by Invitrogen Corporation), and then suspended in the DMEM medium including 10% fetal bovine serum to a cell concentration of 2×10^5 cells/mL. Thereafter, the cells were seeded into 96 well plate at 2×10^4 cells/0.1 mL/well, incubated in the 5% CO2 incubator at 37° C. overnight, and then the plasmids prepared by the above-mentioned reference 1a, reference 3a, and reference 4a were transfected into cells by using a lipofectamine reagent (manufactured by Invitrogen Corporation) according to the attached manual.
Namely, after CV-1 cells were cultured overnight, the cells were washed with PBS (100 μL/well). Thereafter the cells were incubated for 5 hours at 37° C./5% CO2 in the MEM medium (manufactured by Invitrogen Corporation) including 430 ng/mL of human PPARγ expression plasmid (pCI-hPPARg2) prepared by the reference 1a, 430 ng/mL of human RXRα expression plasmid (pCI-hRXRa) prepared by the reference 3a, and 140 ng/mL of the reporter plasmid (pGL3-PPRE3-TK) prepared by the reference 4a, 10 ng/mL of phRL-TK vector (manufactured by Promega Corporation) and 2 μL/mL of lipofectamine.
(A reporter such as luciferase makes a cellular process visible.)
Regarding `COc1cc(Cn2c3ccccc3c3c(O[C@@H](C)C(=O)O)cccc32)ccc1OCc1nc(-c2ccccc2)oc1C` [Example 39, sodium (S)-2-{9-[3-methoxy-4-((5-methyl-2-phenyl-oxazole-4-yl)methoxy)-benzyl]-9H-carbazole-4-yloxy}propionate], the half-inhibitory concentration (IC50) was determined as 617 nM.

For `COc1cc(Cn2c3ccccc3c3c(O[C@H](C(=O)O)C(C)C)cccc32)ccc1OCc1nc(-c2ccccc2)oc1C` [Example 40, sodium (S)-2-{9-[3-methoxy-4-((5-methyl-2-phenyl-oxazole-4-yl)methoxy)-benzyl]-9H-carbazole-4-yloxy}-3-methyl-butyrate], the IC50 was 308 nM.

As for `CCC[C@H](Oc1cccc2c1c1ccccc1n2Cc1ccc(OCc2nc(-c3ccccc3)oc2C)c(OC)c1)C(=O)O` [Example 41, sodium (S)-2-{9-[3-methoxy-4-((5-methyl-2-phenyl-oxazole-4-yl)methoxy)-benzyl]-9H-carbazole-4-yloxy}valerate], the IC50 came to 220 nM.

For `CC[C@@H](Oc1cccc2c1c1ccccc1n2Cc1ccc(OCc2nc(-c3ccccc3)oc2C)c(OC)c1)C(=O)O` [Example 42, sodium (R)-2-{9-[3-methoxy-4-((5-methyl-2-phenyl-oxazole-4-yl)methoxy)-benzyl]-9H-carbazole-4-yloxy}butyrate], the IC50 worked out at 484 nM.

`COc1cc(Cn2c3ccccc3c3c(O[C@@H](C(=O)O)C(C)C)cccc32)ccc1OCc1nc(-c2ccccc2)oc1C` [Example 44, sodium (R)-2-{9-[3-methoxy-4-((5-methyl-2-phenyl-oxazole-4-yl)methoxy)-benzyl]-9H-carbazole-4-yloxy}-3-methyl-butyrate]: the IC50 came to 462 nM.

On to `COc1cc(Cn2c3ccccc3c3c(OCc4ccc(C(=O)O)cc4)cccc32)ccc1OCc1nc(-c2ccccc2)oc1C` [Example 46, sodium 4-((9-(4-((5-methyl-2-phenyloxazole-4-yl)methoxy)-3-methoxybenzyl)-9H-carbazole-5-yloxy)methyl)benzoate], for which the half-maximal inhibitory concentration (IC50) turned out to be 992 nM.

With `COc1cc(Cn2c3ccccc3c3c(Oc4ccccc4C(=O)O)cccc32)ccc1OCc1nc(-c2ccccc2)oc1C` [Example 47, sodium 2-{9-[3-methoxy-4-((5-methyl-2-phenyloxazole-4-yl)methoxy)-benzyl]-9H-carbazole-4-yloxy}benzoate], the concentration for half-maximal inhibition (IC50) came to 30 nM.

In the case of `COc1cc(Cn2c3ccccc3c3c(Oc4cccc(C(=O)O)c4)cccc32)ccc1OCc1nc(-c2ccccc2)oc1C` [Example 48, sodium 3-{9-[3-methoxy-4-((5-methyl-2-phenyloxazole-4-yl)methoxy)-benzyl]-9H-carbazole-4-yloxy}benzoate], the IC50 stood at 2490 nM.

For the compound `COc1cc(Cn2c3ccccc3c3c(Oc4ccc(C(=O)O)cc4)cccc32)ccc1OCc1nc(-c2ccccc2)oc1C` [Example 49, sodium 4-{9-[3-methoxy-4-((5-methyl-2-phenyloxazole-4-yl)methoxy)-benzyl]-9H-carbazole-4-yloxy}benzoate], the concentration for half-maximal inhibition (IC50) turned out to be 1050 nM.
